Source: PubChem BioAssay AID2060896 (Molecular Pharmacology Branch, DTP, NCI, 2025)

System: 941728-121-R-J1-PDC complex spheroid viability
Test: Anticancer human tumor 941728-121-R-J1-PDC patient-derived lung adenocarcinoma cell line growth inhibition [RAS]
Details: for IC50: curve of first compound; for viability, T/C: stronger effect = lower value; active means viability on the fitted dose curve at most 10% of control; inactive means the rest
Method in brief: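 Agents were tested in combination matrices in half-log decrements from a top concentration at or near clinical Cmax (10 microM if undetermined). Targets were multi-cell spheroids of tumour lines plus HUVEC and MSC stromal cells.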

[1] = second compound 0.00316 µM, first compound 0.0316 µM
[2] = second compound 0.00316 µM, first compound 0.1 µM
[3] = second compound 0.00316 µM, first compound 0.316 µM
[4] = second compound 0.00316 µM, first compound 1 µM
[5] = second compound 0.01 µM, first compound 0.0316 µM
[6] = second compound 0.01 µM, first compound 0.1 µM
[7] = second compound 0.01 µM, first compound 0.316 µM
[8] = second compound 0.01 µM, first compound 1 µM
[9] = second compound 0.0316 µM, first compound 0.0316 µM
[10] = second compound 0.0316 µM, first compound 0.1 µM
[11] = second compound 0.0316 µM, first compound 0.316 µM
[12] = second compound 0.0316 µM, first compound 1 µM
[13] = second compound 0.1 µM, first compound 0.0316 µM
[14] = second compound 0.1 µM, first compound 0.1 µM
[15] = second compound 0.1 µM, first compound 0.316 µM
[16] = second compound 0.1 µM, first compound 1 µM
[17] = second compound 0.316 µM, first compound 0.0316 µM
[18] = second compound 0.316 µM, first compound 0.1 µM
[19] = second compound 0.316 µM, first compound 0.316 µM
[20] = second compound 0.316 µM, first compound 1 µM
[21] = second compound 1 µM, first compound 0.0316 µM
[22] = second compound 1 µM, first compound 0.1 µM
[23] = second compound 1 µM, first compound 0.316 µM
[24] = second compound 1 µM, first compound 1 µM
[25] = second compound 0.00316 µM, first compound 0.000949 µM
[26] = second compound 0.00316 µM, first compound 0.003 µM
[27] = second compound 0.00316 µM, first compound 0.00949 µM
[28] = second compound 0.00316 µM, first compound 0.03 µM
[29] = second compound 0.00316 µM, first compound 0.0949 µM
[30] = second compound 0.00316 µM, first compound 0.3 µM
[31] = second compound 0.01 µM, first compound 0.000949 µM
[32] = second compound 0.01 µM, first compound 0.003 µM
[33] = second compound 0.01 µM, first compound 0.00949 µM
[34] = second compound 0.01 µM, first compound 0.03 µM
[35] = second compound 0.01 µM, first compound 0.0949 µM
[36] = second compound 0.01 µM, first compound 0.3 µM
[37] = second compound 0.0316 µM, first compound 0.000949 µM
[38] = second compound 0.0316 µM, first compound 0.003 µM
[39] = second compound 0.0316 µM, first compound 0.00949 µM
[40] = second compound 0.0316 µM, first compound 0.03 µM
[41] = second compound 0.0316 µM, first compound 0.0949 µM
[42] = second compound 0.0316 µM, first compound 0.3 µM
[43] = second compound 0.1 µM, first compound 0.000949 µM
[44] = second compound 0.1 µM, first compound 0.003 µM
[45] = second compound 0.1 µM, first compound 0.00949 µM
[46] = second compound 0.1 µM, first compound 0.03 µM
[47] = second compound 0.1 µM, first compound 0.0949 µM
[48] = second compound 0.1 µM, first compound 0.3 µM
[49] = second compound 0.316 µM, first compound 0.000949 µM
[50] = second compound 0.316 µM, first compound 0.003 µM
[51] = second compound 0.316 µM, first compound 0.00949 µM
[52] = second compound 0.316 µM, first compound 0.03 µM
[53] = second compound 0.316 µM, first compound 0.0949 µM
[54] = second compound 0.316 µM, first compound 0.3 µM
[55] = second compound 1 µM, first compound 0.000949 µM
[56] = second compound 1 µM, first compound 0.003 µM
[57] = second compound 1 µM, first compound 0.00949 µM
[58] = second compound 1 µM, first compound 0.03 µM
[59] = second compound 1 µM, first compound 0.0949 µM
[60] = second compound 1 µM, first compound 0.3 µM
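Further: spheroids exposed to compounds for 7 days before readout.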
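Wherever viability, T/C is given: 100% = DMSO vehicle control viability.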

CC(=O)OC12COC1CC(O)C1(C)C(=O)C(O)C3=C(C)C(OC(=O)C(O)C(NC(=O)OC(C)(C)C)c4ccccc4)CC(O)(C(OC(=O)c4ccccc4)C21)C3(C)C (stereo not drawn) + C=CC(=O)N1CCN(c2nc(OCC3CCCN3C)nc3c(F)c(-c4nc(N)cc(C)c4C(F)(F)F)c(Cl)cc23)C(C)C1
< 31.6 nM: IC50 (second compound 0.00316 µM) | IC50 (second compound 0.01 µM) | IC50 (second compound 0.0316 µM) | IC50 (second compound 0.1 µM) | IC50 (second compound 0.316 µM) | IC50 (second compound 1 µM)
inactive: viability, T/C [1] 15.8% | viability, T/C [2] 13.3% | viability, T/C [3] 13.2% | viability, T/C [4] 12.3% | viability, T/C (second compound 0.00316 µM, first compound 3.16 µM) 13.6% | viability, T/C (second compound 0.00316 µM, first compound 10 µM) 20.4% | viability, T/C [5] 15.8% | viability, T/C [6] 10.3% | viability, T/C [7] 12.7% | viability, T/C [8] 12.2% | viability, T/C (second compound 0.01 µM, first compound 3.16 µM) 12.1% | viability, T/C (second compound 0.01 µM, first compound 10 µM) 12.1% | viability, T/C [9] 14.4% | viability, T/C [10] 14.1% | viability, T/C [11] 11% | viability, T/C [12] 12.8% | viability, T/C (second compound 0.0316 µM, first compound 3.16 µM) 13.1% | viability, T/C (second compound 0.0316 µM, first compound 10 µM) 12.2% | viability, T/C [13] 14.1% | viability, T/C [14] 15.6% | viability, T/C [15] 12% | viability, T/C [16] 13.8% | viability, T/C (second compound 0.1 µM, first compound 3.16 µM) 13.8% | viability, T/C (second compound 0.1 µM, first compound 10 µM) 12.6% | viability, T/C [17] 13.5% | viability, T/C [18] 13% | viability, T/C [19] 14.1% | viability, T/C [20] 13.8% | viability, T/C (second compound 0.316 µM, first compound 3.16 µM) 13.1% | viability, T/C (second compound 0.316 µM, first compound 10 µM) 16.2% | viability, T/C [21] 14.7% | viability, T/C [22] 13.5% | viability, T/C [23] 12.6% | viability, T/C [24] 14.6% | viability, T/C (second compound 1 µM, first compound 3.16 µM) 14% | viability, T/C (second compound 1 µM, first compound 10 µM) 14.5%

CC1(C)CCC(Nc2ncc(C(F)(F)F)c(-c3c[nH]c4c(P(C)(C)=O)c(C#N)ccc34)n2)CN1 (stereo not drawn) + C=CC(=O)N1CCN(c2nc(OCC3CCCN3C)nc3c(F)c(-c4nc(N)cc(C)c4C(F)(F)F)c(Cl)cc23)C(C)C1
< 0.949 nM: IC50 (second compound 0.00316 µM) | IC50 (second compound 0.01 µM) | IC50 (second compound 0.0316 µM) | IC50 (second compound 0.1 µM) | IC50 (second compound 0.316 µM) | IC50 (second compound 1 µM)
inactive: viability, T/C [25] 17.1% | viability, T/C [26] 18.1% | viability, T/C [27] 19.7% | viability, T/C [28] 19% | viability, T/C [29] 20.5% | viability, T/C [30] 20.9% | viability, T/C [31] 18.9% | viability, T/C [32] 16.2% | viability, T/C [33] 17.9% | viability, T/C [34] 17.8% | viability, T/C [35] 17.9% | viability, T/C [36] 16.8% | viability, T/C [37] 14.8% | viability, T/C [38] 16.8% | viability, T/C [39] 17.8% | viability, T/C [40] 17.6% | viability, T/C [41] 17.7% | viability, T/C [42] 17.7% | viability, T/C [43] 15.4% | viability, T/C [44] 16.9% | viability, T/C [45] 17% | viability, T/C [46] 17.2% | viability, T/C [47] 17.8% | viability, T/C [48] 19.1% | viability, T/C [49] 15.3% | viability, T/C [50] 15.8% | viability, T/C [51] 15.8% | viability, T/C [52] 17.7% | viability, T/C [53] 19.3% | viability, T/C [54] 18.1% | viability, T/C [55] 16.6% | viability, T/C [56] 16.6% | viability, T/C [57] 18.8% | viability, T/C [58] 19.3% | viability, T/C [59] 18.6% | viability, T/C [60] 21%

CCc1c2c(nc3ccc(O)cc13)-c1cc3c(c(=O)n1C2)COC(=O)[C@]3(O)CC + C=CC(=O)N1CCN(c2nc(OCC3CCCN3C)nc3c(F)c(-c4nc(N)cc(C)c4C(F)(F)F)c(Cl)cc23)C(C)C1
< 0.949 nM: IC50 (second compound 0.00316 µM) | IC50 (second compound 0.01 µM) | IC50 (second compound 0.0316 µM) | IC50 (second compound 0.1 µM) | IC50 (second compound 0.316 µM) | IC50 (second compound 1 µM)
active: viability, T/C [30] 8.13% | viability, T/C [36] 7.95% | viability, T/C [42] 7.67% | viability, T/C [48] 8.11% | viability, T/C [54] 6.82%
inactive: viability, T/C [25] 21.6% | viability, T/C [26] 18.7% | viability, T/C [27] 14.7% | viability, T/C [28] 13.7% | viability, T/C [29] 12.1% | viability, T/C [31] 18.9% | viability, T/C [32] 15.6% | viability, T/C [33] 20.6% | viability, T/C [34] 13.1% | viability, T/C [35] 11.4% | viability, T/C [37] 18.3% | viability, T/C [38] 16.5% | viability, T/C [39] 13.8% | viability, T/C [40] 15.1% | viability, T/C [41] 11.7% | viability, T/C [43] 16.3% | viability, T/C [44] 17% | viability, T/C [45] 15.1% | viability, T/C [46] 12.6% | viability, T/C [47] 12.4% | viability, T/C [49] 18.3% | viability, T/C [50] 15.8% | viability, T/C [51] 13.7% | viability, T/C [52] 12.2% | viability, T/C [53] 11.7% | viability, T/C [55] 17.1% | viability, T/C [56] 15.4% | viability, T/C [57] 13.8% | viability, T/C [58] 13.7% | viability, T/C [59] 14.8% | viability, T/C [60] 7.83%

Nc1ccn(C2OC(CO)C(O)C2(F)F)c(=O)n1 (stereo not drawn) + C=CC(=O)N1CCN(c2nc(OCC3CCCN3C)nc3c(F)c(-c4nc(N)cc(C)c4C(F)(F)F)c(Cl)cc23)C(C)C1
inactive: viability, T/C (second compound 0.00316 µM, first compound 0.00316 µM) 17.8% | viability, T/C (second compound 0.00316 µM, first compound 0.01 µM) 14.8% | viability, T/C [1] 15.2% | viability, T/C [2] 14% | viability, T/C [3] 15.9% | viability, T/C [4] 15.6% | viability, T/C (second compound 0.01 µM, first compound 0.00316 µM) 17.7% | viability, T/C (second compound 0.01 µM, first compound 0.01 µM) 14.7% | viability, T/C [5] 16.3% | viability, T/C [6] 16.2% | viability, T/C [7] 14.5% | viability, T/C [8] 13.3% | viability, T/C (second compound 0.0316 µM, first compound 0.00316 µM) 14.9% | viability, T/C (second compound 0.0316 µM, first compound 0.01 µM) 15.6% | viability, T/C [9] 15.7% | viability, T/C [10] 13.3% | viability, T/C [11] 14.9% | viability, T/C [12] 15.2% | viability, T/C (second compound 0.1 µM, first compound 0.00316 µM) 16.9% | viability, T/C (second compound 0.1 µM, first compound 0.01 µM) 13.9% | viability, T/C [13] 15.4% | viability, T/C [14] 14.1% | viability, T/C [15] 12.1% | viability, T/C [16] 12.6% | viability, T/C (second compound 0.316 µM, first compound 0.00316 µM) 16.4% | viability, T/C (second compound 0.316 µM, first compound 0.01 µM) 16.1% | viability, T/C [17] 15.9% | viability, T/C [18] 14.3% | viability, T/C [19] 15.8% | viability, T/C [20] 13.8% | viability, T/C (second compound 1 µM, first compound 0.00316 µM) 18.9% | viability, T/C (second compound 1 µM, first compound 0.01 µM) 15.8% | viability, T/C [21] 15.8% | viability, T/C [22] 16.6% | viability, T/C [23] 14% | viability, T/C [24] 12.6%
< 3.16 nM: IC50 (second compound 0.00316 µM) | IC50 (second compound 0.01 µM) | IC50 (second compound 0.0316 µM) | IC50 (second compound 0.1 µM) | IC50 (second compound 0.316 µM) | IC50 (second compound 1 µM)
